Assay results published in ChEMBL document CHEMBL1201862, “PubChem BioAssay data set” (2004).
Active and inactive are the calls of the source.

How the values were obtained:
Integrin alpha-L = Integrin alpha-L (Mus musculus, UniProt P24063); assay: modulators of CD8 T cell-vesicle binding, dose response, powder samples, mouse 2C CD8+ cells (AID 504565); assay type: functional
X-box-binding protein 1 = X-box-binding protein 1 (Homo sapiens, UniProt P17861); assay type: functional, Cricetulus griseus;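 further: confirmatory dose-response counter-screen serving a CHOP assay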
X-box-binding protein 1, sequence (P17861 whole entry): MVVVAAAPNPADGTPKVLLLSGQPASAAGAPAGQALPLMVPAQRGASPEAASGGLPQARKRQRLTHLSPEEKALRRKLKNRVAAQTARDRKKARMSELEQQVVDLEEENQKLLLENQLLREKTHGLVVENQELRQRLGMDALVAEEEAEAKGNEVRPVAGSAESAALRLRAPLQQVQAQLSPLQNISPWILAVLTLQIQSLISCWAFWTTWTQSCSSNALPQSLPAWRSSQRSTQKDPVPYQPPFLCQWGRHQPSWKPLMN

[1] = molecular target: DNA damage-inducible transcript 3 protein (Mus musculus, UniProt P35639); assay type: functional, Cricetulus griseus
DNA damage-inducible transcript 3 protein, sequence (P35639 whole entry): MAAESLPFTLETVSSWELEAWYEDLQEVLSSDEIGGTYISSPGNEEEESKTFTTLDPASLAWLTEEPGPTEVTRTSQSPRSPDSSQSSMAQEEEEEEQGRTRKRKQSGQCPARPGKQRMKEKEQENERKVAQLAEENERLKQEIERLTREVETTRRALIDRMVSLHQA

[2] = molecular target: T1, Alkaline phosphatase, tissue-nonspecific isozyme (Homo sapiens, UniProt P05186); assay: potency against alkaline phosphatase TNAP – biochemical, luminescent, dose response, SAR follow-up (AID 1056)
T1 sequence (P05186 whole entry): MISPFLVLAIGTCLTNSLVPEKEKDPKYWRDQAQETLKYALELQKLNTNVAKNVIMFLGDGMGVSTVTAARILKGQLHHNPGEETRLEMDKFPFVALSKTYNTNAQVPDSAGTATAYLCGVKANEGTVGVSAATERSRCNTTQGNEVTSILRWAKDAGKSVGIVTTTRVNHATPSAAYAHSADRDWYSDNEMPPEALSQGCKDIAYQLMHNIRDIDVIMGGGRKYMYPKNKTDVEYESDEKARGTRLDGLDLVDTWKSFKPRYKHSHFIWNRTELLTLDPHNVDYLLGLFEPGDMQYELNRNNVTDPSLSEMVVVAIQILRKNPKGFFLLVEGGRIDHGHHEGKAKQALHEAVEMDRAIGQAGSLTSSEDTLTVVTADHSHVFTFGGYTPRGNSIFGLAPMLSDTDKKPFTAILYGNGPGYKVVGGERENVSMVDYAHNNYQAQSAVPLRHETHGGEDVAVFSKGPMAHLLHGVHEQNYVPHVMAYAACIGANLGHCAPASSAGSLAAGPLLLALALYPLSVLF

[3] = molecular target: Alkaline phosphatase, placental type (Homo sapiens, UniProt P05187); assay: human placental alkaline phosphatase inhibition – biochemical, luminescence, confirmation (AID 1512); assay type: functional
BJ [4] = assay: cells; assay type: functional, cell-based; conditions: Homo sapiens
BJ [5] = assay: BJ-TERT fibroblast viability loss – cell-based, RAS-independent, luminescence, dose response (AID 1933); assay type: functional; conditions: Homo sapiens
[6] = Luminescence Cell-Based Dose Retest to Confirm Activators of 5'UTR Stem-Loop Driven Alpha-Synuclein mRNA Translation in H4 Neuroglioblastoma Cells. [Related pubchem assays (depositor defined):AID1813, AID1829]; assay type: functional
BJ [7] = assay: BJ-TERT-LT-ST fibroblast viability loss – cell-based, RAS-independent, luminescence, dose response (AID 1935); assay type: functional; conditions: Homo sapiens;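 further: BJ fibroblasts immortalized with TERT plus LT and ST oncogenes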
[8] = Luminescence Cell-Based Dose Confirmation HTS to Identify Inhibitors of 5'UTR Stem-Loop Driven Alpha-Synuclein mRNA Translation in H4 Neuroglioblastoma Cells. [Related pubchem assays: 1827 (Project Summary), 1813 (Primary HTS)]; assay type: functional
Transthyretin = Transthyretin (Homo sapiens, UniProt P02766); assay: Luminescence-based cell-based high throughput dose response assay to identify activators of Transthyretin (TTR) transcription.; assay type: functional
[9] = HEK-293T viability loss after treatment – luminescence, T-cell screen hits, cytotoxicity control for TCR NF-kB inhibitor project, dose response (AID 489026); assay type: functional, cell-based;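 further: cells exposed to compound about 14 hours before the viability readout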
[10] = DRD fibroblast viability loss – cell-based, non-viral oncogenic, luminescence, dose response (AID 1934); assay type: functional; conditions: Homo sapiens
[11] = Luminescence Cell-Based Dose Response HTS to Identify Activators of 5'UTR Stem-Loop Driven Prion Protein mRNA Translation in H4-C Neuroglioblastoma Cells. [Related pubchem assays: 1829 (Project Summary), 1814 (Primary HTS)]; assay type: functional
[12] = Luminescence Cell-Based Dose HTS Response to Identify Inhibitors of 5'UTR Stem-Loop Driven Prion Protein mRNA Translation in H4-C Neuroglioblastoma Cells. [Related pubchem assays (depositor defined):AID1814, AID1827]; assay type: functional
[13] = Luminescence Cell-Based Dose Response HTS to Identify Activators of Luciferase Translation or Activity in H4-C Neuroglioblastoma Cells. [Related pubchem assays: 1829 (Project Summary), 1814 (Primary HTS)]; assay type: functional
[14] = Luminescence Cell-Based Dose Response HTS to Identify Inhibitors of Luciferase Translation or Activity in H4-C Neuroglioblastoma Cells. [Related pubchem assays: 1813 (Primary HTS), 1827 (Project Summary)]; assay type: functional
[15] = luciferase reporter signal suppression in cells – H4 neuroglioma cells, luminescence, dose response (AID 1990); assay type: functional, cell-based
[16] = alpha-synuclein stem-loop luciferase translation blockers – H4 neuroglioma cells, luminescence, confirmation (AID 1988); assay type: functional, cell-based
[17] = Luminescence Cell-Based Dose Response HTS to Identify Inhibitors of 5'UTR Stem-Loop Driven Prion Protein mRNA Translation in H4 Neuroglioblastoma Cells. [Related pubchem assays: 1827 (Project Summary), 1813 (Primary HTS)]; assay type: functional
Troponin, cardiac muscle = Troponin, cardiac muscle (Homo sapiens, UniProt P19429+P45379+P63316); assay: Fluorescence-based biochemical high throughput dose response assay for activators of the calcium sensitivity of cardiac Regulated Thin Filaments (RTF). [Related pubchem assays (depositor defined):AID493008, AID493018, AID504382, AID504383]; assay type: protein-complex assay
[18] = molecular target: T2, Voltage-gated N-type calcium channel alpha-1B subunit/Amyloid beta A4 precursor protein-binding family A member 1 (Homo sapiens, UniProt Q00975+Q02410); assay type: protein assay
T2 sequence (Q00975 whole entry): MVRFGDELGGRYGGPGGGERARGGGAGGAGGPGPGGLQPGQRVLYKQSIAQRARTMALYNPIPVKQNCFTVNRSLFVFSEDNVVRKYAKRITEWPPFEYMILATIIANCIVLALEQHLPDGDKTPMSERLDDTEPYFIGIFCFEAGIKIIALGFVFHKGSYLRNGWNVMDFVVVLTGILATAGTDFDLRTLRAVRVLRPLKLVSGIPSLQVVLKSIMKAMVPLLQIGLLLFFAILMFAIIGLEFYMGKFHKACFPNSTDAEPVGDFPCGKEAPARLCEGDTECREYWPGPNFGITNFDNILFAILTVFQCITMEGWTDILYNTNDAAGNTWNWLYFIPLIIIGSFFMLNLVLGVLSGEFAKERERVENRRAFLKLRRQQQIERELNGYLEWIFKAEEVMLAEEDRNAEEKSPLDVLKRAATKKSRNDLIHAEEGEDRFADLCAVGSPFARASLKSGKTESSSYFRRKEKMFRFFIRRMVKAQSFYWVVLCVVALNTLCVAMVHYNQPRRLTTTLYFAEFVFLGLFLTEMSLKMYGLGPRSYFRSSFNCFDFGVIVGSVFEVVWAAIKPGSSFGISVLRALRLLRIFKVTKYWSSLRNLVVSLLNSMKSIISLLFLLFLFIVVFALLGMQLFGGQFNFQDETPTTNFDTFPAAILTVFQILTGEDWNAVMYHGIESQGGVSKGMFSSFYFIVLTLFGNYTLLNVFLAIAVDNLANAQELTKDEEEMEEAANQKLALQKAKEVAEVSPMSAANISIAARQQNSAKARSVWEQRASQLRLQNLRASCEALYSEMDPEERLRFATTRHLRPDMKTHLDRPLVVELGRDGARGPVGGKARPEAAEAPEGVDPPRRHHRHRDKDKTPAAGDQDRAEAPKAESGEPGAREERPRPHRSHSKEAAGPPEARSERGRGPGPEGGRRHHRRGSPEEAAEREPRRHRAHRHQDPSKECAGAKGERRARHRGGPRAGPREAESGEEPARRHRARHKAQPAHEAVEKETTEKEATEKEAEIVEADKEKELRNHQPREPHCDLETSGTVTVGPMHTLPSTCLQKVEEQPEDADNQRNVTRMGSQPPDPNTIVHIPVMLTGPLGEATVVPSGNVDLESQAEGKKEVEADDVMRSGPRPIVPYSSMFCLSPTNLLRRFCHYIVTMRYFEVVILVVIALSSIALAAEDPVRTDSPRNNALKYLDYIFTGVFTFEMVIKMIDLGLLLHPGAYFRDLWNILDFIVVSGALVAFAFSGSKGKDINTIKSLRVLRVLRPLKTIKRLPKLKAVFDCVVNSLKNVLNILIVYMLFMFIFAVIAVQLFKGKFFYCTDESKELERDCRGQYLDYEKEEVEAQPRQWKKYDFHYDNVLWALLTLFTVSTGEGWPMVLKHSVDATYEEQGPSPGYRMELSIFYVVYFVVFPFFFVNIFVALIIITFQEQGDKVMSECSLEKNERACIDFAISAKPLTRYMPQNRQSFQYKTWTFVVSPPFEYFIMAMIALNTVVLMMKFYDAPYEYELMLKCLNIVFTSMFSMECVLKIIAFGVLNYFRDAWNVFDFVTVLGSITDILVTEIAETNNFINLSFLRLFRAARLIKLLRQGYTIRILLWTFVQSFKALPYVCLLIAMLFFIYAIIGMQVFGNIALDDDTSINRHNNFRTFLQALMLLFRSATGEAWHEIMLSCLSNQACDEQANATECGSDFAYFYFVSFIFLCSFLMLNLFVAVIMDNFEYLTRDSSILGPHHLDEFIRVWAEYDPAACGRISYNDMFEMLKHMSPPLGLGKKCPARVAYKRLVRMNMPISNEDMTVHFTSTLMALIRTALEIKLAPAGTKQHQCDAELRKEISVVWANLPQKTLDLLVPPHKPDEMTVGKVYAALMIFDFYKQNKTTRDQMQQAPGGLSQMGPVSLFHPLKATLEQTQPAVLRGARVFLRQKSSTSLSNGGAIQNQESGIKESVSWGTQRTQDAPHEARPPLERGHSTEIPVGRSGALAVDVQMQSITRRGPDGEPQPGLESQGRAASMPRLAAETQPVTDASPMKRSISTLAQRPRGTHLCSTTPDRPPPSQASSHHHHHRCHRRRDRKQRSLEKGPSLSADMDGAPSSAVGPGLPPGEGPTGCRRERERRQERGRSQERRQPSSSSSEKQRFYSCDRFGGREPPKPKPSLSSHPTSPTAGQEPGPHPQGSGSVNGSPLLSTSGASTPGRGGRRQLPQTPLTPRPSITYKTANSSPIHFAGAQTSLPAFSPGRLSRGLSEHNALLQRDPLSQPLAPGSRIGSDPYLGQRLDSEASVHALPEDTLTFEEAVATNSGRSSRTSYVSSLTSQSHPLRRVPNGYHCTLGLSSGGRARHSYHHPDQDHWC
T2 sequence (Q02410 whole entry): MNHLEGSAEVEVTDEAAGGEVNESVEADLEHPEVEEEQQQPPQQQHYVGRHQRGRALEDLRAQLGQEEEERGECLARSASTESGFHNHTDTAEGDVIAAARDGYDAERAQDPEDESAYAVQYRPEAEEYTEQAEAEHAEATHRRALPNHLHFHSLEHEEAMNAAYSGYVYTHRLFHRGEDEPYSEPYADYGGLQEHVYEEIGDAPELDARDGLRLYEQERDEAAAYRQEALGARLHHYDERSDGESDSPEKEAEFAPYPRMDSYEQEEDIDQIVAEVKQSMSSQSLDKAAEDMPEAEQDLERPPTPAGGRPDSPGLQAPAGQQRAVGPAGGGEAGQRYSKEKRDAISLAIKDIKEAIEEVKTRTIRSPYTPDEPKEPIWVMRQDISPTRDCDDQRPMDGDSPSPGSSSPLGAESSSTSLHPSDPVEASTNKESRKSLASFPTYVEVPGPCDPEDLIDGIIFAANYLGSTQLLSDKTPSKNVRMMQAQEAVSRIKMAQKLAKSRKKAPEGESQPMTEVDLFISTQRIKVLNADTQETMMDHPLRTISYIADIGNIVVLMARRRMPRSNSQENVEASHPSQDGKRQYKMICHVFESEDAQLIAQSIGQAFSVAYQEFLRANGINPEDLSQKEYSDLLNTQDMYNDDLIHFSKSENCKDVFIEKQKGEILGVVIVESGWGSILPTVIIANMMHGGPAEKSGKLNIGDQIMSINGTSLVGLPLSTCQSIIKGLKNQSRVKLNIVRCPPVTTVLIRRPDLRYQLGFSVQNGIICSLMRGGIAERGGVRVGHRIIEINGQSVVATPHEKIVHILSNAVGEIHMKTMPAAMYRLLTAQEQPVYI

[19] = molecular target: T2, Voltage-gated N-type calcium channel alpha-1B subunit/Amyloid beta A4 precursor protein-binding family A member 1; assay type: protein assay; remark: listed apart in the source

Integrin alpha-L, sequence (P24063 whole entry): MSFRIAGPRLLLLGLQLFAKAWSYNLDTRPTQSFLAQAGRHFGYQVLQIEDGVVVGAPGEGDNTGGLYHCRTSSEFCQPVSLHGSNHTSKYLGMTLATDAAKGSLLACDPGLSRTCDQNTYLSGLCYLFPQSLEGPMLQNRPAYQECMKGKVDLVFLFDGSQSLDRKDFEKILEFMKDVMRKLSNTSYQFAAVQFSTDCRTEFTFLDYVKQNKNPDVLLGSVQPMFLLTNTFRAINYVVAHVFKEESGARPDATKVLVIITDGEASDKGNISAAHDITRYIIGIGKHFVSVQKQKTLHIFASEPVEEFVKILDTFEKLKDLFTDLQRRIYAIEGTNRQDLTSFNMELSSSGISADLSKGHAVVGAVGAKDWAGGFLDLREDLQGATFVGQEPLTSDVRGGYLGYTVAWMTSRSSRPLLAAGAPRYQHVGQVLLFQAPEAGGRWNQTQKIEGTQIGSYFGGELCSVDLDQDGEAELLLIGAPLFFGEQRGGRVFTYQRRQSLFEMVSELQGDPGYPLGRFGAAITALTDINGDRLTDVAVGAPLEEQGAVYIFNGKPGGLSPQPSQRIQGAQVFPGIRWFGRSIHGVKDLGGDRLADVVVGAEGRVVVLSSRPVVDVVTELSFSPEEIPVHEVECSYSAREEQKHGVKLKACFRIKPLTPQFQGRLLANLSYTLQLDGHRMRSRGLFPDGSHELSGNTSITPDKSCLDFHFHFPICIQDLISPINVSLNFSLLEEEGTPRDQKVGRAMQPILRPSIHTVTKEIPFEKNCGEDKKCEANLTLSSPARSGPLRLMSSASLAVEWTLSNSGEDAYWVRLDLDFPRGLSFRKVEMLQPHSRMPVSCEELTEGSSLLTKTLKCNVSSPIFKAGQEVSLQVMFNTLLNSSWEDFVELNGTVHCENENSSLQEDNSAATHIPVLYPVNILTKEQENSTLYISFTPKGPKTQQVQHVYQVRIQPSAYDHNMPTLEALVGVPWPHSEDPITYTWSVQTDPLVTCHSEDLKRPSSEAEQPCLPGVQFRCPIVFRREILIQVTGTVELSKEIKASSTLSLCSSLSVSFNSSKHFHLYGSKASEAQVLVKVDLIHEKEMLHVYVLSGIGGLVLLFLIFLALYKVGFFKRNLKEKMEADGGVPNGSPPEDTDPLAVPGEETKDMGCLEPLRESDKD

Structure (SMILES): COc1ccc(S(=O)(=O)N2CCCC2C(=O)Nc2ccc(C(C)=O)cc2)cc1 (stereo not drawn)
- EC50 (Integrin alpha-L): 0.04 µM (active)

Structure (SMILES): COc1cccc(Nc2ncnc3c2cnn3-c2cccc(C)c2)c1
- Absolute IC50 (XBP1) (X-box-binding protein 1): 10 µM
- Absolute IC50 (CHOP) [1]: 10 µM

Structure (SMILES): COc1ccc(-c2nnc(SCC(=O)c3ccc(O)c(O)c3)n2-c2ccc(Cl)cc2)cc1
- IC50 [2]: > 100 µM (inactive)
- IC50 [3]: 25 µM (active)

Structure (SMILES): CCOC(=O)Nc1nc(-c2ccccc2)c(C(=O)c2ccc(Cl)cc2)s1
- EC50 (BJ [4]): 15.6 µM (active)
- EC50 (BJ [5]): 1.26 µM (inconclusive)
- EC50 [6]: 1.76 µM (inconclusive)
- EC50 (BJ [7]): 1.45 µM (inconclusive)
- EC50 [8]: 1.76 µM (active)
- EC50 (Transthyretin): > 167 µM (inactive)
- IC50 [9]: > 80 µM (inactive)
- EC50 [10]: 1.28 µM (active)
- EC50 [11]: 1.95 µM (inconclusive)
- EC50 [12]: 1.95 µM (active)
- EC50 [13]: 2.32 µM (inconclusive)
- EC50 [14]: 2.32 µM (active)
- EC50 [15]: 5.3 µM (active)
- EC50 [16]: 0.108 µM (active)
- EC50 [17]: 3.25 µM (active)

Structure (SMILES): O=[n+]1c2c(n([O-])c3ccccc31)CCC2
- EC50 (Troponin, cardiac muscle): > 71.5 µM (inactive)

Structure (SMILES): COc1ccc2cc(/N=C/c3nc(-c4ccc(C)cc4)oc3O)cnc2c1
- IC50 [18]: 10.3 µM (active)
- IC50 [19]: > 50 µM (inactive)
